What was measured:
[1] = biological target: purified NANOLUC® Luciferase (Oplophorus gracilirostris, UniProt Q9GV45, A31E/A60N/A81I/F95D/I117V/K70R/L54V/L99Q/M102K/N193R/P142E/Q151K/Q38R/Q45L/V71I/Y165I); format: biochemical; conditions: for RLU at 100 uM: relative value, furimazine set to 1, purified NanoLuc, initial light output three minutes after substrate addition
Experimental: Each compound to be screened was dissolved in DMSO (5 mM) and then further diluted to 100 uM in NANO-GLO® Luciferase Assay Buffer. Each diluted substrate was then combined in equal volumes with purified NANOLUC® Luciferase diluted into CO2 independent media+10% FBS. Initial light output for each substrate was measured in a GloMax®-Multi+ luminometer three minutes after substrate addition and then at five minute intervals as a means to determine signal half-life. […] Km was calculated using GraphPad Prism using non linear Michaelis-Menten regression.

[2] = system: NanoLuc:KDR; test: Cell-based luciferase assay, HEK293 cells expressing NanoLuc:KDR (NanoLuc on the cell surface), ± extracellular inhibitor JRW-0344; conditions: 10 μM substrate ± 20 μM inhibitor, FIG. 2A
Experimental: (§1) FIGS. 2A-2D show extracellular bioluminescent activity of exemplary compounds in HEK293 cells. HEK293 cells were transfected with two different membrane bound NANOLUC® fusions: 1) NanoLuc:KDR, presenting NanoLuc on the outside of the membrane; 2) KDR:NanoLuc, presenting NanoLuc on the inside of the membrane. The cell impermeable NANOLUC® inhibitor JRW-0344 (disclosed in U.S. Ser. No. 15/192,420 to Duellman et al., “THIENOPYRROLE COMPOUNDS AND USES THEREOF,” filed Jun. 24, 2016), was added to the cells to inhibit extracellular bioluminescent activity.
(§2) HEK293 cells were maintained in DMEM containing 100 IU/ml penicillin, 100 μg/ml streptomycin, and 10% fetal calf serum at 37° C. in 5% CO2. Dulbecco's modified eagle medium (DMEM), Opti-MEM, Penicillin/Streptomycin, and Trypsin-EDTA are purchased from Life Technologies (Carlsbad). Fetal calf serum (FBS) is purchased from HyClone (GE Healthcare). Microtiter plates were purchased from Corning.
(§3) HEK293 cells were transiently transfected with two different integral membrane NanoLuc fusion proteins: 1) NanoLuc:KDR, presenting NanoLuc on the cell surface; 2) KDR:NanoLuc, presenting NanoLuc in the interior of the cell. After 24 hours, transfected cells were collected, resuspended in OptiM at 200,000 cell/ml and plated into wells of white, 96-well plates at 100 μL/well. For luminescent measurements, cells were treated with the indicated substrates at a final concentration of 10 μM or 20 μM in the presence or absence of 20 μM cell impermeable NanoLuc inhibitor JRW-0344. The luminescent signal was analyzed 3 minutes after substrate addition using a GLOMAX® Discover multimode detection plate reader (Promega).

[3] = system: KDR:NanoLuc; test: Cell-based luciferase assay, HEK293 cells expressing KDR:NanoLuc (NanoLuc in the interior of the cell), ± extracellular inhibitor JRW-0344; conditions: HEK293 expressing KDR:Nluc; 10 μM substrate ± 20 μM JRW-0344; FIG. 2C
Experimental: as §1, §2, §3

[4] = system: KDR:NanoLuc; test: Lytic vs. live cell format, HEK293 cells expressing KDR:NanoLuc; format: cell-based; conditions: digitonin (lytic) or JRW-0344 (live), FIG. 3C
Experimental: (§4) FIGS. 3A-D show the activities of cell permeable and cell impermeable compounds at various substrate concentrations. HEK293 cells were transfected (1:100 carrier DNA) with the fusion protein KDR:NanoLuc, which presents membrane bound NanoLuc on the inside of the membrane. Cells were then treated with digitonin (for lytic format) or JRW-0344 (for live cell format). Both sets were treated with varying substrate concentrations to give Michaelis-Menten type plots. […] However, substrates that are cell impermeable (or mostly impermeable) show large differences between live and lytic cell formats (FIG. 3C).
as §4, with “HEK293” for “FIGS. 3A-D show the activities of cell permeable and cell impermeable compounds at various substrate concentrations. HEK293”, “digitonin to lyse the cell membrane” for “digitonin”, “format) to compare activity of cell permeable and non-cell permeable substrates.” for “format).”

[5] = system: Nluc-b2 adrenergic receptor (B2AR); test: Bioluminescence imaging of Nluc-B2AR in HeLa cells; format: cell-based; conditions: 10 uM substrate, Olympus LV200, FIGS. 4A and 4B
Experimental: FIGS. 4A and 4B show the results of imaging of Nluc-B2AR in HeLa cells using furimazine and JRW-0769. HeLa cells were reverse transfected with an expression construct for Nluc-b2 adrenergic receptor (B2AR) and plated into a LabTEKII chambered coverslip (50,000 cells per well in 400 uL medium) and incubated overnight. For imaging, the medium was removed and replaced with CO2-independent medium. Immediately before placing the sample onto the imaging instrument, Furimazine or JRW-0769 was added to the cells at a final concentration of 10 uM. Image acquisition was performed on an Olympus LV200 bioluminescence imager using a 40×/0.95 NA objective with electromultiplying gain set to 400 and an acquisition time of 0.5 sec (Furimazine) and 2.5 sec (JRW-0769).
HeLa cells were reverse transfected with an expression construct for Nluc-b2 adrenergic receptor (B2AR) and plated into a LabTEKII chambered coverslip (50,000 cells per well in 400 uL medium) and incubated overnight. For imaging, the medium was removed and replaced with CO2-independent medium. Immediately before placing the sample onto the imaging instrument, Furimazine or JRW-0769 was added to the cells at a final concentration of 10 uM. […]

Chain of purified NANOLUC® Luciferase (Q9GV45 28-196 with tags or gaps with the stated changes limits assumed): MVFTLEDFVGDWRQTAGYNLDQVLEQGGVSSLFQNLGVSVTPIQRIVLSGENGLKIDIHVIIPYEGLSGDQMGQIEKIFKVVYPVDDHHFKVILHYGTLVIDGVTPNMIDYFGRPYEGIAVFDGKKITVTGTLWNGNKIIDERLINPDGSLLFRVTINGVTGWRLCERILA

Row | SMILES | RLU at 100 uM [1] | Difference in RLU's in the presence and absence of the extracellular inhibitor [2] | RLU and effect of the extracellular inhibitor [3] | Lowered activity in the live cell format versus lytic format [4] [fold] | Localization of the imaged Nluc-B2AR signal [5] | RLU (absolute light output that is set to 1) ([1]; 2.5 ng/mL NanoLuc)
1 | O=c1c(Cc2ccc(OCCCCCCS(=O)(=O)[O-])c(F)c2)nc2c(Cc3ccccc3)[nH]c(-c3ccccc3)cn1-2.[Na+] [JRW-0769, sodium 6-(4-((8-benzyl-3-oxo-6-phenyl-3,7-dihydroimidazo[1,2-a]pyrazin-2-yl)methyl)-2-fluorophenoxy)hexane-1-sulfonate] | 0.1 | Larger differences in RLU's | much dimmer and can be inhibited close to background level | 100 | limited to membrane-localized receptor | 
2 | O=C(O)CCCCCOc1cccc(Cc2nc3c(Cc4ccccc4)[nH]c(-c4ccccc4)cn-3c2=O)c1 [JRW-0684, 6-(3-((8-benzyl-3-oxo-6-phenyl-3,7-dihydroimidazo[1,2-a]pyrazin-2-yl)methyl)phenoxy)hexanoic acid] | 0.0057 | Small differences in RLU's | not affected by the extracellular inhibitor |  |  | 
3 | O=c1c(Cc2ccc(OCCCCCCS(=O)(=O)[O-])c(Cl)c2)nc2c(Cc3ccccc3)[nH]c(-c3ccccc3)cn1-2.[Na+] [JRW-0728, sodium 6-(4-((8-benzyl-3-oxo-6-phenyl-3,7-dihydroimidazo[1,2-a]pyrazin-2-yl)methyl)-2-chlorophenoxy)hexane-1-sulfonate] | 0.14 | Larger differences in RLU's | much dimmer and can be inhibited close to background level | 100 |  | 
4 | O=c1c(Cc2ccc(OCCCCCCBr)c(Cl)c2)nc2c(Cc3ccccc3)[nH]c(-c3ccccc3)cn1-2 [JRW-0720, 8-benzyl-2-(4-((6-bromohexyl)oxy)-3-chlorobenzyl)-6-phenylimidazo[1,2-a]pyrazin-3(7H)-one] | 0.0085 | Small differences in RLU's | not affected by the extracellular inhibitor |  |  | 
5 | O=c1c(Cc2ccco2)nc2c(Cc3ccccc3)[nH]c(-c3ccccc3)cn1-2 [Furimazine, reference compound] | 1 |  |  |  | intracellular Nluc-B2AR | ~1.0×10^7 RLU
6 | NCCCCCCOc1cccc(Cc2nc3c(Cc4ccccc4)[nH]c(-c4ccccc4)cn-3c2=O)c1 [TAK-0039, 2-(3-((6-aminohexyl)oxy)benzyl)-8-benzyl-6-phenylimidazo[1,2-a]pyrazin-3(7H)-one] | 0.0077 | Small differences in RLU's | not affected by the extracellular inhibitor |  |  | 
7 | O=c1c(Cc2cccc(OCCCCCCS(=O)(=O)[O-])c2)nc2c(Cc3ccccc3)[nH]c(-c3ccccc3)cn1-2.[Na+] [JRW-0703, sodium 6-(3-((8-benzyl-3-oxo-6-phenyl-3,7-dihydroimidazo[1,2-a]pyrazin-2-yl)methyl)phenoxy)hexane-1-sulfonate] | 0.016 | Larger differences in RLU's | much dimmer and can be inhibited close to background level | 100 |  | 

Reference: US11192894B2, “Cell impermeable coelenterazine analogues” (PROMEGA CORPORATION, priority 2016, dated 2021)
